Measured values from patent US12378201B2, “Histone demethylase inhibitors for treating cancers” (The Board of Regents of the University of Texas System, priority 2019, dated 2025).

How the values were obtained:
[1] = system: LNCaP and 22rv1 cell lines; test: SAR statements on LNCaP and 22rv1 cell lines; format: cell-based; conditions: LNCaP 1 μM, 22rv1 0.5 μM
Experimental: All compounds were evaluated for their effects on LNCaP and 22rv1 cell lines at 1 and 0.5 μM concentrations, respectively. […] For this purpose different analogues of B-3 with chain length varying from 0 to 4 carbon were synthesized (Table 1). […] In view of the availability of a variety of commercially available benzyl amines over phenyl propyl amines and method to functionalize analogues with 1C chain compound 14c was selected for further modification.

[2] = system: castration resistant prostate cancer cell line 22RV1; test: 22RV1 xenograft tumor growth in NOD/SCID mice; format: in vivo; conditions: in words
Experimental: All animal work was approved by the Institutional Animal Care and Use Committee. NOD/SCID mice (6-8 weeks old) were subcutaneously injected in the flank region with castration resistant prostate cancer cell line 22RV1 (1×10^6 cells/site) mixed with 50% Matrigel (BD Biosciences). When tumor volumes reached 50-100 mm^3 in size, animals were randomly divided into 5 groups: control (DMSO); B3 (50 or 10 mg/kg in DMSO); SS-79N (20 or 10 mg/kg in DMSO). Each group included six mice. Tumor volume (cubic millimeters) was measured by caliper twice a week and calculated by using the ellipsoid formula (π/6×length×width×depth, see FIGS. 12A-12B).

[3] = system: LnCap cells; test: Effect on LnCap cell viability; conditions: 1 μM
Experimental: The initial interest was to see the importance of length of side chain on B-3. […] Relative cell growth can be assessed using the MTT (3-(4,5-dimethylthiazol-2-yl)-2,5-diphenyltetrazolium bromide) assay, a colorimetric assay for assessing cell metabolic activity. Cells (1000 to 2000 cells/well) in 150 μL culture medium were seeded in wells of a 96-well plate one day before various concentrations of drugs were added. After continuing culture in the presence of the drugs for the indicated time (3-4 days), 20 μL of 5 mg/mL MTT solution (Sigma-Aldrich) was added into each well. After incubation at 37° C. for 30 min, the culture medium was removed and 100 μL of DMSO was added to dissolve MTT crystals. Plates were shaken for 15 min at room temperature and absorbance at OD590 was read by plate reader.

[4] = system: prostate and kidney cancer cells; test: Cell growth inhibition / anti-proliferation (MTT); format: cell-based, human
Text: Results of MTT assays for compounds disclosed herein can be found in FIGS. 1, 2A-2C, 3, 4, 5, 6, 7, 8, 9, 10A-10C, and 11A-11C.

IC50 ([4]; prostate and kidney cancer cells): < 200 nM
Compound: O=C(NCc1ccc(C(=O)NC2CCC(C(F)(F)F)CC2)cc1)c1cccc(-c2cc(O)c3ncccc3c2)c1 (stereo not drawn) [Compound 17l]
activity on cell lines, in words (SAR) [1]: improved further
in vivo efficacy [2]: favorable in vivo efficacy
% Cell Viability of LnCap cells at 1 μM [3]: 24.2%
increase in potency compared to other 8-hydroxyquinoline-containing compounds, such as B3 ([4]; IC50 versus B3): more than 20 fold
efficacy compared with the known GSK KDM6B inhibitor ([4]; in words): much better efficacy than the known GlaxoSmithKline (GSK) KDM6B inhibitor
